{
  "source": "patent US20250312499A1",
  "about": "“KISSPEPTIN RECEPTOR (KISS1R) TARGETED THERAPEUTICS AND USES THEREOF” (priority 2024, published 2025)",
  "note": "Numbered stars: 1 amine (or outer) side, 2 acyl side, 3 side chain; on linkers, the order of the positions; unused ones are H or OH. Square brackets hold non-standard residues; d marks the D form. Peptide text beside a SMILES is read from it. * marks the point of attachment. DOTA = O=C(O)CN1CCN(CC(=O)O)CCN(CC(=O)*)CCN(CC(=O)O)CC1; Gly(N-(3-F-4-Me-benzyl)) = Cc1ccc(CNCC(=O)*)cc1F; Gly(N-3-F-4-Me-benzyl) = Cc1ccc(CNCC(=O)O)cc1F; Gly(Nα-4-MeO-benzyl) = COc1ccc(CNCC(=O)*)cc1; Butanoyl(4-(4-MePh)) = Cc1ccc(CCCC(=O)*)cc1; Api(1-amidino) = N=C(N)N1CCC(N)(C(=O)O)CC1; Bip = N[C@@H](Cc1ccc(-c2ccccc2)cc1)C(=O)O; Hydrocinnamoyl(4-I) = O=C(CCc1ccc(I)cc1)*; Phe(3-F) = N[C@@H](Cc1cccc(F)c1)C(=O)O; Phe(4-I) = N[C@@H](Cc1ccc(I)cc1)C(=O)O; d2Nal = N[C@H](Cc1ccc2ccccc2c1)C(=O)O; Trx = NC[C@H]1CC[C@H](C(=O)O)CC1; X1 = O=C(CN1CCC(N[*:1])CC1)[*:2]; dCya = N[C@H](CS(=O)(=O)O)C(=O)O; 4Pal = N[C@@H](Cc1ccncc1)C(=O)O; d4Pal = N[C@H](Cc1ccncc1)C(=O)O; Cha = N[C@@H](CC1CCCCC1)C(=O)O; 4Amb = NCc1ccc(C(=O)O)cc1; Api = NC1(C(=O)O)CCNCC1; PEG2 = NCCOCCOCCC(=O)O; Ahx = NCCCCCC(=O)O; azaGly = NNC(=O)O; Sar = CNCC(=O)O",
  "data": [
    {"molecular_target": "human kisspeptin receptor (Homo sapiens (Human), UniProt Q969F8)", "sequence (Q969F8 whole entry)": "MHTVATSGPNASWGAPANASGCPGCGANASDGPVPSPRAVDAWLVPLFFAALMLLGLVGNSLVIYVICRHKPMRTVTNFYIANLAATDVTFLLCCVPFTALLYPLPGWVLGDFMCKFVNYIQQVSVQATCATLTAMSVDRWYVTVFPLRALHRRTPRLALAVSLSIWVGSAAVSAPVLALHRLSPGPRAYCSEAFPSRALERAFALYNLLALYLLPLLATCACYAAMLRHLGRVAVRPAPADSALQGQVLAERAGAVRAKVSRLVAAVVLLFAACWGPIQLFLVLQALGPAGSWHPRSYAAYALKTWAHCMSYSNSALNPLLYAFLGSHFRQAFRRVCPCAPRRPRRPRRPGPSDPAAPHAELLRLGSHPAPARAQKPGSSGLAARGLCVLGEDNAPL", "test": "Human KISS1R binding assay (membrane competition binding)", "details": "90 min at room temperature; competition with 0.2 nM [125I]-metastin (45-54); Flp-In T-Rex 293 kisspeptin membranes; metal complexes nonradioactive Ga, In, Lu; read-out: hKiSSR Binding Ki (90 min)", "summary_of_the_method": "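Radioligand competition: 0.2 nM [125I]-metastin (45-54) displaced by test ligand (usually 0–10,000 nM) over 90 min at room temperature, pH 7.4 buffer with 0.1% BSA. Receptor source is crude membrane (5–10 μg) from tetracycline-induced Flp-In T-Rex 293 cells. Bound label filtered and counted; Ki from non-linear regression.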", "units": {"Ki": "nM"}, "values": [
      {"smiles": "CC(C)C[C@H](NC(=O)NNC(=O)[C@H](Cc1ccc(I)cc1)NC(=O)[C@@H](NC(=O)[C@H](CC(N)=O)NC(=O)[C@H](Cc1ccc(I)cc1)NC(=O)[C@@H](Cc1ccc(O)cc1)NC(=O)CN1CCN(CC(=O)O)CCN(CC(=O)O)CCN(CC(=O)O)CC1)[C@@H](C)O)C(=O)NC1(C(=O)N[C@@H](Cc2ccncc2)C(N)=O)CCN(C(=N)N)CC1", "note": "[Compound 121] ({DOTA}-[dY][Phe(4-I)]NT[Phe(4-I)][azaGly]L[Api(1-amidino)][4Pal]-NH2)", "Ki": "10 to 100"},
      {"smiles": "Cc1ccc(CNCC(=O)N2CCC(NC(=O)[C@H](CC(C)C)NC(=O)NNC(=O)[C@H](Cc3ccccc3)NC(=O)CCCCCNC(=O)[C@@H](CS(=O)(=O)O)NC(=O)[C@@H](CS(=O)(=O)O)NC(=O)CN3CCN(CC(=O)O)CCN(CC(=O)O)CCN(CC(=O)O)CC3)(C(=O)N[C@@H](Cc3c[nH]c4ccccc34)C(N)=O)CC2)cc1F", "note": "[Compound 130] ({DOTA}-[dCya][dCya][Ahx]F[azaGly]L[Api](Gly(N-(3-F-4-Me-benzyl)))W-NH2)", "Ki": "< 10"},
      {"smiles": "Cc1ccc(CNCC(=O)N2CCC(NC(=O)[C@H](CC(C)C)NC(=O)NNC(=O)[C@H](Cc3ccccc3)NC(=O)c3ccc(CNC(=O)CN4CCN(CC(=O)O)CCN(CC(=O)O)CCN(CC(=O)O)CC4)cc3)(C(=O)N[C@@H](Cc3c[nH]c4ccccc34)C(N)=O)CC2)cc1F", "note": "[Compound 109] ({DOTA-4Amb}-F[azaGly]L[Api](Gly(N-(3-F-4-Me-benzyl)))W-NH2)", "Ki": "< 10"},
      {"smiles": "Cc1ccc(CCCC(=O)N[C@H](Cc2ccc(O)cc2)C(=O)N[C@H](Cc2c[nH]c3ccccc23)C(=O)N[C@@H](CC(N)=O)C(=O)N[C@H](C(=O)N[C@@H](Cc2ccccc2)C(=O)NNC(=O)N[C@@H](CC(C)C)C(=O)NC2(C(=O)N[C@@H](Cc3c[nH]c4ccccc34)C(N)=O)CCN(C(=O)CNCc3ccc(C)c(F)c3)CC2)[C@@H](C)O)cc1", "note": "[Compound 403] ({Butanoyl(4-(4-MePh))}-[dY][dW]NTF[azaGly]L[Api](Gly(N-(3-F-4-Me-benzyl)))W-NH2)", "Ki": "< 10"},
      {"smiles": "CC(C)C[C@H](NC(=O)NNC(=O)[C@H](Cc1ccccc1)NC(=O)[C@@H](NC(=O)[C@H](CC(N)=O)NC(=O)[C@@H](Cc1ccc2ccccc2c1)NC(=O)[C@H](N)Cc1ccc(O)cc1)[C@@H](C)O)C(=O)NC1(C(=O)N[C@@H](Cc2c[nH]c3ccccc23)C(N)=O)CCN(C(=N)N)CC1", "note": "[Compound 411] (H-[dY][d2Nal]NTF[azaGly]L[Api(1-amidino)]W-NH2)", "Ki": "< 10"},
      {"smiles": "Cc1ccc(CNCC(=O)N2CCC(NC(=O)c3cc(OCCNC(=O)[C@H](Cc4ccccc4)NC(=O)CCCCCNC(=O)CN4CCN(CC(=O)O)CCN(CC(=O)O)CCN(CC(=O)O)CC4)c(-c4ccccc4)cc3C)(C(=O)N[C@@H](Cc3c[nH]c4ccccc34)C(N)=O)CC2)cc1F", "note": "[Compound 282]", "Ki": "> 100"},
      {"smiles": "Cc1ccc(CNCC(=O)N2CCC(NC(=O)[C@H](CC(C)C)NC(=O)NNC(=O)[C@H](Cc3ccccc3)NC(=O)[C@H]3CC[C@H](CNC(=O)c4ccc(CNC(=O)CN5CCN(CC(=O)O)CCN(CC(=O)O)CCN(CC(=O)O)CC5)cc4)CC3)(C(=O)N[C@@H](Cc3c[nH]c4ccccc34)C(N)=O)CC2)cc1F", "note": "[Compound 110] ({DOTA-4Amb-Trx}-F[azaGly]L[Api](Gly(N-(3-F-4-Me-benzyl)))W-NH2)", "Ki": "< 10"},
      {"smiles": "Cc1ccc(CNCC(=O)N2CCC(NC(=O)[C@H](CC(C)C)NC(=O)NNC(=O)[C@H](Cc3ccccc3)NC(=O)[C@@H](NC(=O)[C@H](CC(N)=O)NC(=O)CN3CCC(NC(=O)CN4CCN(CC(=O)O)CCN(CC(=O)O)CCN(CC(=O)O)CC4)CC3)[C@@H](C)O)(C(=O)N[C@@H](Cc3ccc(O)cc3)C(N)=O)CC2)cc1F", "note": "[Compound 249] ({DOTA}-[X1]NTF[azaGly]L[Api](Gly(N-(3-F-4-Me-benzyl)))Y-NH2)", "Ki": "< 10"},
      {"smiles": "CNCC(=O)N1CCC(NC(=O)[C@H](CC(C)C)NC(=O)NNC(=O)[C@H](Cc2ccccc2)NC(=O)[C@@H](NC(=O)[C@H](CC(N)=O)NC(=O)[C@H](CCCCNC(=O)CN2CCN(CC(=O)O)CCN(CC(=O)O)CCN(CC(=O)O)CC2)NC(=O)[C@@H](Cc2ccc(O)cc2)NC(=O)CNCc2ccc(C)c(F)c2)[C@@H](C)O)(C(=O)N[C@@H](Cc2c[nH]c3ccccc23)C(N)=O)CC1", "note": "[Compound 386] (H-[Gly(N-3-F-4-Me-benzyl)][dY]K(DOTA)NTF[azaGly]L[Api](Sar)W-NH2)", "Ki": "< 10"},
      {"smiles": "Cc1ccc(CNCC(=O)N2CCC(NC(=O)[C@H](CC(C)C)NC(=O)NNC(=O)[C@H](CC3CCCCC3)NC(=O)[C@@H](NC(=O)[C@H](CC(N)=O)NC(=O)[C@@H](Cc3ccncc3)NC(=O)CCCCCNC(=O)CN3CCN(CC(=O)O)CCN(CC(=O)O)CCN(CC(=O)O)CC3)[C@@H](C)O)(C(=O)N[C@@H](Cc3c[nH]c4ccccc34)C(N)=O)CC2)cc1F", "note": "[Compound 314] ({DOTA-Ahx}-[d4Pal]NT[Cha][azaGly]L[Api](Gly(N-(3-F-4-Me-benzyl)))W-NH2)", "Ki": "< 10"},
      {"smiles": "Cc1ccc(CNCC(=O)N2CCC(NC(=O)[C@H](CC(C)C)NC(=O)NNC(=O)[C@H](Cc3cccc(F)c3)NC(=O)[C@@H](NC(=O)[C@H](CC(N)=O)NC(=O)CCCCCNC(=O)CN3CCN(CC(=O)O)CCN(CC(=O)O)CCN(CC(=O)O)CC3)[C@@H](C)O)(C(=O)N[C@@H](Cc3ccncc3)C(N)=O)CC2)cc1F", "note": "[Compound 169] ({DOTA-Ahx}-NT[Phe(3-F)][azaGly]L[Api](Gly(N-(3-F-4-Me-benzyl)))[4Pal]-NH2)", "Ki": "< 10"},
      {"smiles": "COc1ccc(CNCC(=O)N2CCC(NC(=O)[C@H](CC(C)C)NC(=O)NNC(=O)[C@H](Cc3ccccc3)NC(=O)[C@@H](NC(=O)[C@H](CC(N)=O)NC(=O)[C@@H](Cc3c[nH]c4ccccc34)NC(=O)[C@@H](Cc3ccc(O)cc3)NC(=O)CCCCCNC(=O)CN3CCN(CC(=O)O)CCN(CC(=O)O)CCN(CC(=O)O)CC3)[C@@H](C)O)(C(=O)N[C@@H](Cc3ccccc3)C(N)=O)CC2)cc1", "note": "[Compound 140] ({DOTA-Ahx}-[dY][dW]NTF[azaGly]L[Api](Gly(Nα-4-MeO-benzyl))F-NH2)", "Ki": "< 10"},
      {"smiles": "Cc1ccc(CNCC(=O)N2CCC(NC(=O)[C@H](CC(C)C)NC(=O)NNC(=O)[C@H](Cc3ccccc3)NC(=O)[C@H]3CC[C@H](CNC(=O)CCCCCNC(=O)CN4CCN(CC(=O)O)CCN(CC(=O)O)CCN(CC(=O)O)CC4)CC3)(C(=O)N[C@@H](Cc3c[nH]c4ccccc34)C(N)=O)CC2)cc1F", "note": "[Compound 38] ({DOTA-Ahx-Trx}-F[azaGly]L[Api](Gly(N-(3-F-4-Me-benzyl)))W-NH2)", "Ki": "> 100"},
      {"smiles": "CC(C)C[C@H](NC(=O)NNC(=O)[C@H](Cc1ccccc1)NC(=O)[C@@H](NC(=O)[C@H](CC(N)=O)NC(=O)[C@@H](Cc1ccc2ccccc2c1)NC(=O)[C@@H](Cc1ccc(O)cc1)NC(=O)CCOCCOCCNC(=O)CCc1ccc(I)cc1)[C@@H](C)O)C(=O)NC1(C(=O)N[C@@H](Cc2ccc(O)cc2)C(N)=O)CCN(C(=N)N)CC1", "note": "[Compound 397] ({Hydrocinnamoyl(4-I)-PEG2}-[dY][d2Nal]NTF[azaGly]L[Api(1-amidino)]Y-NH2)", "Ki": "< 10"},
      {"smiles": "CNCC(=O)N1CCC(NC(=O)[C@H](CC(C)C)NC(=O)NNC(=O)[C@H](Cc2ccccc2)NC(=O)[C@@H](NC(=O)[C@H](CC(N)=O)NC(=O)[C@H](Cc2ccc(-c3ccccc3)cc2)NC(=O)[C@@H](Cc2ccc(O)cc2)NC(=O)CCCCCNC(=O)CN2CCN(CC(=O)O)CCN(CC(=O)O)CCN(CC(=O)O)CC2)[C@@H](C)O)(C(=O)N[C@H](Cc2c[nH]c3ccccc23)C(N)=O)CC1", "note": "[Compound 389] ({DOTA-Ahx}-[dY][Bip]NTF[azaGly]L[Api](Sar)[dW]-NH2)", "Ki": "< 10"}
    ]}
  ]
}
